Like-named read-outs stand apart in the source and are kept apart here.
Experiments:
[1] = tested on: S. pyogenes strain JRS4; test: Determination of subbacteriostatic concentrations (growth curve, OD600); type: cell-based, Streptococcus pyogenes; settings: minimum dose at which growth curve plateaus at OD600 <1.0 after 4-h incubation at 37 °C, THY, added at OD600 0.4
Procedure: (§1) S. pyogenes strain JRS4 (M6^+ F1^+) was grown in Todd-Hewitt broth supplemented with 0.3% yeast extract (THY) at 37 °C.
S. pyogenes were grown in THY to an OD600 of 0.4 (exponential phase) at 37 °C and then added a solution of antibiotic of varying concentration. The culture mixture was further incubated for 4 h at 37 °C. Subbacteriostatic concentration in this study is the minimum dose of antibiotic that makes growth curve reach a plateau at OD600 of <1.0 after the 4-h incubation. In the absence of antibiotics, GAS cells grew up to OD600 of approximately 1.6. Subbacteriostatic concentrations were determined for each antibiotic, and mode-of-action analyses were performed at these concentrations (Figs 2, 3, 4, 5, 6 and 7).

[2] = tested on: S. pyogenes strain JRS4; test: Live cell labeling with sortase A substrate in the presence of antibiotics: phenotype and cell size distribution; type: cell-based, Streptococcus pyogenes; settings: for cells with one or more completed septa among cells with multiple division sites: n = 55 (CBPV), 114 (flavomycin), 105 (ΔNCBPV) cells
Source text: Streptococcal cell wall synthesis consists of cylindrical peripheral synthesis and septal synthesis (Fig. 1A). A study using Streptococcus pneumoniae illustrated that the serine-threonine kinase StkP controls the switch from peripheral synthesis to septal synthesis. Splitting of the septum (cell separation) is then mediated by the action of autolysin. We labeled the GAS cell wall using the sortase method in the absence of antibiotics, and the observed labeling patterns of GAS were classified into three phenotypes (Fig. 1A–C). Phenotype A cells are newly divided cells without specific fluorescent labeling. Phenotype B cells are in the peripheral growth stage. A characteristic two-elongated-dot image or an open ring corresponds to peripheral growth near the bacterial division site. Phenotype C cells are in the septal growth stage, and the dividing septum is fluorescently stained. The distribution (%) of phenotypes A, B, and C among cells was 37 ± 2, 47 ± 2, and 16 ± 1, respectively, in log-phase GAS. Data represent the mean ± sem (n = 3). Subsequently, we constructed a histogram of each phenotype population as a function of bacterial cell length, as defined in Fig. 1C (orange, Fig. 1D). The subpopulation of cells with a specific phenotype is overlaid on the total cell size distribution (blue). […] The histograms also illustrate that cells grow from phenotype A, through phenotype B, to phenotype C (followed by cell separation), confirming that peripheral growth precedes septal growth in GAS. We speculated that the changes of this histogram would provide information on antibiotic modes of action.
as §1
Bacterial cells grown in THY to an OD600 of 0.35–0.4 (exponential phase) at 37 °C were exposed to antibiotics and incubated for 1 h, and 100-μL aliquots of culture mixture were taken and added to a solution of sortase substrate (FL-KLPETG-NH2, final concentration = 1 mM). After incubation for 2.5 h at 37 °C in the dark, Nile Red (10 μg/mL) and DAPI (1 μg/mL) were added. The mixture was allowed to stand for 30 min and then centrifuged (12,000 rpm, 2 min, 4 °C). The supernatant was removed, and the pellet was washed thrice with PBS buffer to remove unreacted sortase substrate. Cells were re-suspended in PBS buffer, mounted on a glass slide, and examined by fluorescent microscopy. Images were analyzed manually using ImageJ software (ver. 1.50). Sets of axial- and equatorial-length were also recorded for each cell. At least 200 cells were analyzed in each analysis. All experiments were performed at least thrice, and representative results are shown.

[3] = tested on: gram-positive strains; settings: ref many studies; cited from earlier work
[4] = tested on: S. pyogenes strain JRS4; test: Imaging of peripheral growth by FDAA pre-labeling in D-cycloserine/oxacillin-treated cells; type: cell-based, Streptococcus pyogenes; settings: FDAA pre-labeling 1 h, then antibiotic 3 h
Source text: The observed enlargement of cells implied that cell wall synthesis could proceed, at least partly, in the presence of these antibiotics at their subbacteriostatic concentrations. We therefore studied the relationship between peripheral growth length and axial length for cells via dual-color staining. Nile red was used to stain the bacterial cell membrane, and the fluorescent D-amino acid (FDAA) labeling[10]–[12] was employed for old cell wall (preexisting prior to antibiotic treatment). In the presence of antibiotic, peripheral growth length was measured as a gap between the old (stained) regions of the preexisting cell wall (Fig. 5A and B).
Bacterial cells grown in THY to an OD600 of 0.2 (exponential phase) at 37 °C, and 100-μL aliquots of culture mixture were taken (Fig. 5). FDAA solution (final concentration = 1 mM; FL-D-Lys for Fig. 5A and E, tetramethylrhodamine- D-Lys for Fig. 5D) was added, and the mixture was incubated for 1 h at 37 °C in the dark. The mixture was centrifuged (12,000 rpm, 2 min, 4 °C), the supernatant was removed, and the pellet was washed with PBS buffer thrice to remove unreacted FDAA. Cells were re-suspended in 100-μL THY and incubated at 37 °C in the dark with antibiotics for 2.5 h. […]

[5] = antibiotic at subbacteriostatic conc., mean ± sem, n = 3
[6] = antibiotic at subbacteriostatic conc.

Compound: Vancomycin
- subbacteriostatic concentration [1]: 4 µg/mL
- proportion of cells, phenotype A (no active cell wall synthesis) [2, 5]: 34 ± 4%
- proportion of cells, phenotype B (peripheral growth) [2, 5]: 49 ± 4%
- proportion of cells, phenotype C (septal growth) [2, 5]: 17 ± 1%

Compound: des-N-methyl-leucyl-vancomycin
- antibacterial activity [3]: totally loses its antibacterial activity

Compound: chlorobiphenyl vancomycin [CBPV]
- subbacteriostatic concentration [1]: 0.25 µg/mL
- proportion of cells, phenotype A (no active cell wall synthesis) [2, 5]: 20 ± 1%
- proportion of cells, phenotype B (peripheral growth) [2, 5]: 58 ± 6%
- proportion of cells, phenotype C (septal growth) [2, 5]: 9 ± 2%
- proportion of cells, phenotype D′ (multiple peripheral growth sites, axially elongated) [2, 5]: 13 ± 4%
- cells with one or more completed septa among cells with multiple division sites [2, 6]: 4%

Compound: Cc1onc(-c2ccccc2)c1C(=O)N[C@@H]1C(=O)N2[C@@H]1SC(C)(C)[C@@H]2C(=O)O [Oxacillin]
- peripheral growth/axial length relationship (dot blot analysis) [4]: peripheral growth barely contributed to cell enlargement
- subbacteriostatic concentration [1]: 4 µg/mL
- proportion of cells, phenotype A (no active cell wall synthesis) [2, 5]: 19 ± 4%
- proportion of cells, phenotype B (peripheral growth) [2, 5]: 60 ± 4%
- proportion of cells, phenotype C (septal growth) [2, 5]: 12 ± 5%
- proportion of cells, phenotype D (multiple septa in an elongated cell) [2, 5]: 9 ± 2%

Compound: des-N-methylleucyl chlorobiphenyl vancomycin [ΔNCBPV]
- subbacteriostatic concentration [1]: 3 µg/mL
- proportion of cells, phenotype B (peripheral growth) [2]: 45 ± 12%
- proportion of cells, phenotype C (septal growth) [2]: 17 ± 8%
- proportion of cells, phenotype D′ (multiple peripheral growth sites, axially elongated) [2]: 24 ± 3%
- proportion of cells, phenotype A (no active cell wall synthesis) [2, 5]: 14 ± 1%
- cells with one or more completed septa among cells with multiple division sites [2, 6]: 52%

Compound: Ramoplanin
- subbacteriostatic concentration [1]: 2 µg/mL
- proportion of cells, phenotype A (no active cell wall synthesis) [2, 5]: 27 ± 3%
- proportion of cells, phenotype B (peripheral growth) [2, 5]: 50 ± 4%
- proportion of cells, phenotype C (septal growth) [2, 5]: 23 ± 5%

Compound: Flavomycin
- subbacteriostatic concentration [1]: 1 µg/mL
- proportion of cells, phenotype A (no active cell wall synthesis) [2, 5]: 4 ± 1%
- proportion of cells, phenotype B (peripheral growth) [2, 5]: 20 ± 6%
- proportion of cells, phenotype C (septal growth) [2, 5]: 22 ± 2%
- proportion of cells, phenotype D (multiple septa in an elongated cell) [2, 5]: 54 ± 5%
- cells with one or more completed septa among cells with multiple division sites [2, 6]: 98%

Compound: Bacitracin
- subbacteriostatic concentration [1]: 4 µg/mL

Compound: N[C@@H]1CON=C1O [D-Cycloserine]
- peripheral growth/axial length relationship (dot blot analysis) [4]: considerably larger than that of oxacillin-treated cells
- subbacteriostatic concentration [1]: 100 µg/mL
- proportion of cells, phenotype A (no active cell wall synthesis) [2, 5]: 25 ± 6%
- proportion of cells, phenotype B (peripheral growth) [2, 5]: 68 ± 7%
- proportion of cells, phenotype C (septal growth) [2, 5]: 2 ± 1%
- proportion of cells, phenotype D (multiple septa in an elongated cell) [2, 5]: 5 ± 1%
